Measured values published in publication PMC9995120, “Drug specificity and affinity are encoded in the probability of cryptic pocket opening in myosin motor domains” (eLife, 2023).

Columns and labels:
[1] = biological target: T1, β-cardiac myosin (Homo sapiens, UniProt P12883); assay: NADH-linked actin-activated ATPase assay with purified recombinant S1; format: biochemical
T1 construct: gene MYH7; with actin (porcine ventricles); endogenous C2C12 light chains
Excerpt: NADH-linked actin-activated ATPase assay with purified recombinant S1 on β-cardiac myosin | we measured the IC50 value for β-cardiac myosin S1.

[2] = biological target: T2, Myh7b (Homo sapiens, UniProt A7E2Y1); assay: as above; format: biochemical
T2 construct: with actin (porcine ventricles); endogenous C2C12 light chains
T2 sequence (A7E2Y1 43-892): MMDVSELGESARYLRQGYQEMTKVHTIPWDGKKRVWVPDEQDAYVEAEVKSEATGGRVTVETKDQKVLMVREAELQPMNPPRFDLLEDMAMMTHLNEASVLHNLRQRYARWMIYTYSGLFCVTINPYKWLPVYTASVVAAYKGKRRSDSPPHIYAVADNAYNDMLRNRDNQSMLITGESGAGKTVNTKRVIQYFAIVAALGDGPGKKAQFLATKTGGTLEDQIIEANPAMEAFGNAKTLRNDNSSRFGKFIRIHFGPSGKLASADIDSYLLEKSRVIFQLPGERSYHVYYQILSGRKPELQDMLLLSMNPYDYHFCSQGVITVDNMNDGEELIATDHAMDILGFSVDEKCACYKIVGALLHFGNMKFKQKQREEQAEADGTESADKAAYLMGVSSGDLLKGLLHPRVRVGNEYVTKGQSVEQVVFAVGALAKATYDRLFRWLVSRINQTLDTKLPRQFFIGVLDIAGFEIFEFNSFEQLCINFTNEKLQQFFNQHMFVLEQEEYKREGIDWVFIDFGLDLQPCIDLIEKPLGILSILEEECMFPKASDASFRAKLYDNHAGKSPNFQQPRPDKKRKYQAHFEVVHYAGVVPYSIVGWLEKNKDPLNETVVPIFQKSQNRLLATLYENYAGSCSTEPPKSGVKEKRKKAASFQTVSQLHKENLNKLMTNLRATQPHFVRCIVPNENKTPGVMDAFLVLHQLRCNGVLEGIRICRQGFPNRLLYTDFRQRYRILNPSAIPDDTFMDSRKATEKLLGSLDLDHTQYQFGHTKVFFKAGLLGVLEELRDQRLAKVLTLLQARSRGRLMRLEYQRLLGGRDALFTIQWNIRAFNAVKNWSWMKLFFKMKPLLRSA

T1 sequence (P12883 1-842): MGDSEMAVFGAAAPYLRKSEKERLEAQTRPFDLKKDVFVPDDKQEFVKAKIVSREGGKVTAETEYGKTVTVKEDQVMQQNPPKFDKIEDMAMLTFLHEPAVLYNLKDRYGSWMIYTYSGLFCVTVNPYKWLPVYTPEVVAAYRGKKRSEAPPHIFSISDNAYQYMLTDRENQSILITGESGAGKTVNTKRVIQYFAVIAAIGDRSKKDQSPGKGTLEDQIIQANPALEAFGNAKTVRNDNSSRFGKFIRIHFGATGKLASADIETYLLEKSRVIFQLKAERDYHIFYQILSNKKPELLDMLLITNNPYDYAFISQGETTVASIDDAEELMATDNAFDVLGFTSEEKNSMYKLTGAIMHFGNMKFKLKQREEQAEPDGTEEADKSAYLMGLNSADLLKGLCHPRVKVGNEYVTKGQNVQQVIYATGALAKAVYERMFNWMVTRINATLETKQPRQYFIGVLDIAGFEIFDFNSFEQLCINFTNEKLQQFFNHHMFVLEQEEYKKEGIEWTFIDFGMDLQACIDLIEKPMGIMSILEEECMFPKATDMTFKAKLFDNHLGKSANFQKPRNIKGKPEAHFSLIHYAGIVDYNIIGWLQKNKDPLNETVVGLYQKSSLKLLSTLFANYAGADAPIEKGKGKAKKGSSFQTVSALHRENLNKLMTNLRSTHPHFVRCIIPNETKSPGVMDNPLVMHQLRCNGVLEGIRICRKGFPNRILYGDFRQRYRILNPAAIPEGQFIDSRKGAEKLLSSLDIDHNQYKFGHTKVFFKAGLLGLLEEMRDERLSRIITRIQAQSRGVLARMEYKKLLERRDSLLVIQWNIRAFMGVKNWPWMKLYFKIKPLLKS

SMILES: Cc1ccc2c(c1)C(=O)[C@]1(O)CCN(c3ccccc3)C1=N2 [Blebbistatin]
- IC50 [1]: 1120 ± 290 nM
- IC50 [2]: 360 ± 80 nM
